Assay results from patent US12139481B2, “Compositions comprising macrocycle derivatives incorporating bridged macrocycles and methods of producing and using same” (Southwestern Oklahoma State University, priority 2015, dated 2024).
Where two headings read alike, the source gives them in different places.

Columns and labels:
C. glabrata ATCC 90030 = test: Antifungal broth dilution assay against C. glabrata (modified CLSI); assay type: cell-based, Candida glabrata; conditions: for C. glabrata IC50 / IC50: in vitro; for IC50: converted with molecular weight; for X more potent than Amphotericin B: molar IC50 ratio versus amphotericin B
Protocol: (§1) General Experimental Procedures. All organisms were obtained from the American Type Culture Collection (Manassas, VA) and include the fungi Candida albicans ATCC 90028, C. glabrata ATCC 90030, C. krusei ATCC 6258, and Cryptococcus neoformans ATCC 90113, and the bacteria Staphylococcus aureus ATCC 29213 and methicillin-resistant S. aureus ATCC 33591 (MRS). All organisms were tested using modified versions of the CLSI (formerly NCCLS) methods. For all organisms, optical density was used to monitor growth (NCCLS, Reference Method for Broth Dilution Antifungal Susceptibility Testing of Yeasts; Approved Standard M27-A2. National Committee on Clinical Laboratory Standards, 2002 22 (15); and NCCLS, Methods for Dilution Antimicrobial Susceptibility Tests for Bacteria that Grow Aerobically; Approved Standard, Seventh Edition M7-A7. National Committee on Clinical Laboratory Standards, 2006. 26(2)).
Samples (dissolved in DMSO) were serially-diluted in 20% DMSO/saline and transferred (10 μL) in duplicate to 96 well flat bottom microplates. Inocula were prepared by correcting the OD630 of microbe suspensions in incubation broth [RPMI 1640/0.2% dextrose/0.03% glutamine/MOPS @ pH 6.0 (Cellgro) for Candida spp., Sabouraud Dextrose for C. neoformans, and cation-adjusted Mueller-Hinton (Difco) @ pH 7.3 for Staphylococcus spp. to afford an assay volume of […] and final target inocula of: Candida spp. and C. neoformans: 1.5×10^3, and Staphylococcus spp.: 5.0×10^5 CFU/ml. Final sample test concentrations were 1/100th the DMSO stock concentration. […] All organisms were read at either 530 nm using the Biotek Powerwave XS plate reader (Bio-Tek Instruments, Vermont) prior to and after incubation: Candida spp. at 35° C. for 46-50 h, Staphylococcus spp. at 35° C. for 16-20 h, and C. neoformans at 35° C. for 70-74 h. IC50s (concentrations that afford 50% inhibition relative to controls) were calculated using XLfit 4.2 software (IDBS, Alameda, CA) using fit model 201. The MIC is defined as the lowest test concentration that allows no detectable growth. Minimum fungicidal or bactericidal concentrations were determined by removing 5 μl from each clear (or blue) well, transferring to fresh media, and incubating as previously mentioned. The MFC/MBC is defined as the lowest test concentration that kills the organism (allows no growth).
Primary Analysis. Samples were tested in duplicate at one test concentration (50 μg/mL), and percent inhibitions were calculated relative to blank and growth controls. Samples showing 50% inhibition in at least one test organism were selected for dose response (Secondary) studies.
Secondary Analysis. Extracts from the Primary Assay, and first-run pure compounds and column fractions were tested in duplicate at 3 test concentrations (5-fold dilutions). Samples dissolved to 20 mg/mL in DMSO were tested at 200, 40, and 8 μg/mL. Samples dissolved to 2 mg/mL in DMSO were tested at 20, 4, and 0.8 μg/mL.

[1] = test system: Cryptococcus neoformans ATCC 90113; test: Antimicrobial microdilution assay against Cryptococcus neoformans (modified CLSI/NCCLS, optical density); assay type: cell-based; conditions: for X more potent than Amphotericin B: C. neoformans, ratio of molar IC50 to Amphotericin B; for C. neoformans IC50 / IC50: in vitro, C. neoformans ATCC 90113; for IC50: read-out: C. neoformans IC50 (mol/L)
Protocol: Summary: Various macrocyclic derivatives constructed in accordance with the presently disclosed and/or claimed inventive concept(s) were screened in vitro against Cryptococcus neoformans ATCC 90113 using a microdilution assay. The minimum fungicidal concentration (MFC), the lowest test concentration that kills the organism, was determined in broth media.
Antimicrobial assay: Cryptococcus neoformans ATCC 90113 were obtained from the American Type Culture Collection (Manassas, VA.). The susceptibility testing was performed using a modified version of the CLSI (formerly NCCLS) methods (see below), and optical density was used to monitor growth. Samples were serially diluted in 20% DMSO/saline and transferred in duplicate to 96-well flat bottom microplates. Microbial inocula were prepared by correcting the OD630 of cell/spore suspensions in incubation broth RPMI at pH 6.0 to afford final desired target inocula. Amphotericin B (“AMB;” ICN Biomedicals, OH) was used as drug control. The organism concentration was read at 630 nm using the Biotek Powerwave XS plate reader (Bio-Tek instruments, VT) prior to and after incubation. Minimum fungicidal concentrations were determined by removing 5 μL from each clear well, transferring to agar, and incubating until growth was seen. The MFC/MBC is defined as the lowest test concentration that kids the organism (allows no growth on agar).
References for NCCLS methods referenced above: 1 NCCLS. Reference method for broth dilution antifungal susceptibility testing of yeasts, Vol. 22. Approved standard, 2nd ed. Wayne: National Committee for Clinical Laboratory Standards; 2002: 1-51. 2 NCCLS. Reference method for broth dilution antifungal susceptibility testing of conidium forming filamentous fungi, Vol. 18. Proposed standard M38-P. Wayne: National Committee for Clinical Laboratory Standards; 1998: 1-39. 3 NCCLS. Methods for dilution antimicrobial susceptibility tests for bacteria that grow aerobically, Vol. 20. NCCLS Document M7-A5. Wayne: National Committee for Clinical Laboratory Standards; 2000: 1-58.
The term “IC50” as used herein will be understood to refer to a test concentration in mol/L that affords 50% inhibition of the microbe relative to negative and positive controls. […] The abbreviation “MFC” as used herein will be understood to refer to a minimum fungicidal concentration, or the lowest test concentration in mol/L that kills the organism. All IC50s are calculated using the XLfit® fit curve fitting software (ID Business Solutions Ltd, Guildford, Surrey, UK).
as §1
Samples (dissolved in DMSO) were serially-diluted in 20% DMSO/saline and transferred (10 μL) in duplicate to 96 well flat bottom microplates.

[2] = test system: L. donovani promastigotes; test: Antileishmanial Alamar Blue assay on promastigotes; assay type: cell-based, Leishmania donovani; conditions: for X more potent than Pentamidine: L. donovani, ratio of molar IC50 to Pentamidine; for L. donovani IC50 / IC50: promastigotes, 48 hours, Alamar Blue; for IC50: read-out: L. donavani IC50
Protocol: Methods: The compounds were screened in vitro against the promastigote forms of the leishmania parasites employing the Alamar Blue assay as discussed below.
Antileishmanial activity of the compounds was tested in vitro against a culture of L. donovani promastigotes, grown in RPMI 1640 medium supplemented with 10% fetal calf serum (FCS, Gibco Chem. Co., Grand Island, NY) at 26° C. A 3-day-old culture was diluted to 5×10^5 promastigotes/mL. Drug dilutions (50-3.1 μg/mL) were prepared directly in cell suspension in 96-well plates. Plates were incubated at 26° C. for 48 hours, and growth of leishmania promastigotes was determined by Alamar Blue assay. Standard fluorescence was measured on a FLUOstar® Galaxy plate reader (BMG Lab Technologies, Ortenberg, Germany) at an excitation wavelength of 544 nm and emission wavelength of 590 nm. Pentamidine and amphotericin B were used as the standard antileishmanial agents. Percent growth was calculated and plotted versus test concentration for computing the IC50 values.

Compound	C. glabrata IC50 (C. glabrata ATCC 90030)	IC50 (C. glabrata ATCC 90030)	X more potent than Amphotericin B (C. glabrata ATCC 90030)	X more potent than Amphotericin B [1]	C. neoformans IC50 [1]	IC50 [1]	X more potent than Pentamidine [2]	L. donovani IC50 [2]	IC50 ([2]; HCl salt)	IC50 ([1]; HCl salt)	IC50 [2]
CC(=O)[O-].CC(=O)[O-].F[P-](F)(F)(F)(F)F.F[P-](F)(F)(F)(F)F.O.O.[Co+2].[Co+2].c1cc(CN2CCNCCN3CCN(CC3)CC2)cc(CN2CCNCCN3CCN(CC3)CC2)c1 [OB36, [Co2(m-SB-Cyclens)(OAc)2][PF6]2•2H2O]	3.720 µg/mL	3.51 µM	0.40	0.32	≤ 0.800 µg/mL	0.754 µM					
[Cu2(m-cyclam-homocyclen)(OAc)1.5][PF6]2.5 [AW051A]	7.253 µg/mL	6.32 µM	0.22	0.23	1.172 µg/mL	1.02 µM					
Cl.Cl.Cl.Cl.Cl.Cl.Cl.Cl.c1cc(CN2CCNCCCN3CCN(CC3)CC2)ccc1CN1CCNCCCN2CCN(CC2)CC1 [OB45B, p-SB-homocyclens HCl salt]				0.67	0.290 µg/mL		0.13	34.55 µg/mL	42.2 µM	0.354 µM	
CC(=O)[O-].F[P-](F)(F)(F)(F)F.[Zn+2].c1ccc(CN2CCCNCCN(Cc3ccccc3)CCCNCC2)cc1 [SLK07B, [Zn(Bn2Cyclam)(OAc)]PF6]				0.01	19.840 µg/mL		1.16	2.97 µg/mL			
[Ni3(tris-CB-Cyclams)(OAc)3][PF6]3•2.5H2O [BNS23]				0.03	12.110 µg/mL	7.26 µM	0.28	31.63 µg/mL			19 µM
CC(=O)[O-].CC(=O)[O-].F[P-](F)(F)(F)(F)F.F[P-](F)(F)(F)(F)F.O.[Zn+2].[Zn+2].c1cc(CN2CCCN3CCNCCCN(CC3)CC2)ccc1CN1CCCN2CCNCCCN(CC2)CC1 [TJH417B, [Zn2(H2-p-CB-cyclams)(OAc)2][PF6]2•H2O]				0.08	3.120 µg/mL		0.17	34.93 µg/mL			
p-SB-cyclens HCl salt [OB24B]				0.31	0.670 µg/mL	0.776 µM	0.14	32.40 µg/mL			37.5 µM
c1ccc(CN2CCN3CCN(CC2)CCN(Cc2ccccn2)CC3)nc1 [PW95]	14.850 µg/mL	39 µM	0.04								
c1ccc(CN2CCCNCCN(Cc3ccccc3)CCCNCC2)cc1 [BME04, Bn2Cyclam]				0.01	12.160 µg/mL	31.9 µM	0.77	2.63 µg/mL			6.91 µM
O.[Cl-].[Cl-].[Mn+2].c1ccc(CN2CCCNCCN(Cc3ccccc3)CCCNCC2)cc1 [TJH397A, Mn(Bn2Cyclam)Cl2•H2O]				0.01	16.870 µg/mL	32.2 µM	1.21	2.31 µg/mL			4.41 µM
CC(=O)[O-].Clc1cc(CN2CCNCCN3CCN(CC3)CC2)cc(Cl)n1.F[P-](F)(F)(F)(F)F.[Ni+2] [OB106, [Ni(dcp1-SB-cyclen)(OAc)]PF6]				0.38	0.390 µg/mL	0.628 µM	0.14	23.19 µg/mL			37.3 µM
[Cu2(m-CB-Homocyclens)(OAc)2.5][PF6]1.5 [CDG035]				0.08	3.260 µg/mL	3.11 µM	0.21	26.37 µg/mL			25.2 µM
CC(=O)[O-].CC(=O)[O-].CC(=O)[O-].CC(=O)[O-].O=[N+]([O-])c1ccc(CC2CNCCN(Cc3ccc(CN4CCCN5CCN(CCCNCC4)CC5)cc3)CCCN3CCN(CC3)C2)cc1.[Zn+2].[Zn+2] (stereo not drawn) [SJA235, [Zn2(bis-SB-C-Ar-NO2)(OAc)4]]				0.13	1.930 µg/mL		0.16	34.77 µg/mL			
CC(=O)[O-].Clc1cc(CN2CCCN3CCN(CCCNCC2)CC3)cc(Cl)n1.F[P-](F)(F)(F)(F)F.[Co+2] [KLC002A]	16.070 µg/mL	24.8 µM	0.06								
[Zn(dcp1-SB-cyclen)(OAc)]PF6 [OB110A]				0.30	0.610 µg/mL	0.805 µM	0.11	38.32 µg/mL			50.6 µM
p-CB-cyclam-cyclen [CMB008D]				0.17	≤ 0.800 µg/mL	1.44 µM	0.08	38.75 µg/mL			69.8 µM
[Co2(m-CB-Homocyclens)(OAc)2.6][PF6]1.4 [CDG036]				0.08	3.040 µg/mL	2.95 µM	0.25	22.23 µg/mL			21.6 µM
